Reference: patent publication US5041567A, “Antibacterial monic acid derivatives” (Beecham Group plc, priority 1982, dated 1991)
≈ marks a conversion by molar mass, not a printed value. Like-named read-outs stand apart in the source and are kept apart here.

Legend:
M. suipneumoniae NB12 = experiment: MIC against mycoplasma in vitro; format: cell-based
M. suipneumoniae Str. 11 = experiment: MIC against mycoplasma in vitro; format: cell-based
M. suipneumoniae MS 16 = experiment: MIC against mycoplasma in vitro; format: cell-based
M. suipneumoniae TAM 6N = experiment: MIC against mycoplasma in vitro; format: cell-based; conditions: M. suipneumoniae TAM 6N, 6 days, 37° C.
M. bovis NCTC 10131 = experiment: microbe, parasite or virus in culture; format: cell-based
[1] = tested on: M. bovigenitalium ATCC 14173; experiment: MIC against mycoplasma in vitro; format: cell-based
M. gallisepticum S6 = experiment: MIC against mycoplasma in vitro; format: cell-based; conditions: M. gallisepticum S6, 6 days, 37° C.
E. coli NCTC 10418 [2] = experiment: MIC against human bacteria in vitro; format: cell-based; conditions: E. coli NCTC 10418, agar with 5% chocolated horse blood, 18 hours, 37° C.
P. mirabilis 889 = experiment: MIC against human bacteria in vitro; format: cell-based; conditions: P. mirabilis 889, 5% chocolated horse blood agar, 18 hours
K. aerogenes A = experiment: MIC against human bacteria in vitro; format: cell-based; conditions: K. aerogenes A, 5% chocolated horse blood agar, 18 hours
[3] = tested on: Ps. aeruginosa NCTC 10662; experiment: MIC against human bacteria in vitro; format: cell-based; conditions: Ps. aeruginosa NCTC 10662, 5% chocolated horse blood agar, 18 hours
[4] = tested on: Haemophilus influenzae Q1; experiment: MIC against human bacteria in vitro; format: cell-based; conditions: Haemophilus influenzae Q1; 5% chocolated horse blood agar, 18 hours; read-out: MIC
[5] = tested on: Neisseria catarrhalis 1502; experiment: MIC against human bacteria in vitro; format: cell-based
Strep. faecalis I = experiment: MIC against human bacteria in vitro; format: cell-based; conditions: Strep. faecalis I, 5% chocolated horse blood agar, 18 hours
E. coli NCTC 10418 [6] = experiment: MIC against veterinary bacteria in vitro
Procedure: (§1) The activity of the compounds of the Examples against various veterinarily important bacteria, was assayed in vitro using two-fold serial dilutions in Diagnostic Sensitivity Test Agar inoculated with 10^4 organisms.

E. coli E1 = experiment: MIC against veterinary bacteria in vitro
Procedure: as §1

S. typhimurium S18 = experiment: MIC against veterinary bacteria in vitro
Procedure: as §1

Bord. bronchiseptica B09 = experiment: MIC against veterinary bacteria in vitro
Procedure: as §1

[7] = tested on: Staph. aureus 152 (pen. sens); experiment: MIC against veterinary bacteria in vitro
Procedure: as §1

Strep. uberis SPU1 = experiment: MIC against veterinary bacteria in vitro
Procedure: as §1

Strep. dysgalactiae SPD1 = experiment: MIC against veterinary bacteria in vitro
Procedure: as §1

[8] = tested on: Strep. pyogenes R80/421-A; experiment: MIC against human bacteria in vitro; format: cell-based; conditions: Strep. pyogenes R80/421-A, 5% chocolated horse blood agar, 18 hours
Strep. spp. 64/848-C = experiment: MIC against human bacteria in vitro; format: cell-based; conditions: Strep. spp. 64/848-C, 5% chocolated horse blood agar, 18 hours
[9] = Mesomycoplasma hyopneumoniae, 144 h, M. suipneumoniae NB12, Friis broth, 0.9% agarose, 6 days, 37° C., read-out: MIC
[10] = Mesomycoplasma hyopneumoniae, 144 h, M. suipneumoniae Str. 11, 6 days, 37° C., read-out: MIC
[11] = Mesomycoplasma hyopneumoniae, MS16, 144 h, M. suipneumoniae MS 16, 6 days, 37° C., read-out: MIC
[12] = Mesomycoplasma hyopneumoniae, TAM6N, 144 h, read-out: MIC
[13] = Mycoplasmoides gallisepticum, 144 h, read-out: MIC
[14] = Escherichia coli, NCTC10418, read-out: MIC
[15] = Proteus mirabilis, read-out: MIC
[16] = Klebsiella aerogenes, read-out: MIC
[17] = Pseudomonas aeruginosa, NCTC10662, read-out: MIC
[18] = Enterococcus faecalis, read-out: MIC
[19] = Escherichia coli, NCTC10418, 18 h
[20] = Salmonella enterica, TYPHIMURIUM, 18 h
[21] = Bordetella bronchiseptica, B09, 18 h
[22] = Streptococcus uberis, SPU1, 18 h
[23] = Streptococcus dysgalactiae, SPD1, 18 h
[24] = Neisseria catarrhalis 1502, 5% chocolated horse blood agar, 18 hours, read-out: MIC
[25] = Streptococcus pyogenes, read-out: MIC

C/C(=C\c1ncc(-c2cccc(C#N)c2)o1)C[C@@H]1OC[C@H](C[C@@H]2O[C@H]2[C@@H](C)[C@H](C)O)[C@@H](O)[C@H]1O [Example 5, 5-m-cyanophenyl-2-(1-normon-2-yl)oxazole A]
MIC (M. suipneumoniae NB12; [9]): 0.05 µg/mL (≈ 0.107 µM) | MIC (M. suipneumoniae Str. 11; [10]): 0.05 µg/mL (≈ 0.107 µM) | MIC (M. suipneumoniae MS 16; [11]): 0.05 µg/mL (≈ 0.107 µM) | MIC (M. suipneumoniae TAM 6N; [12]): 0.1 µg/mL (≈ 0.213 µM) | MIC (M. bovis NCTC 10131; NCTC10131, 144 h): ≤ 0.01 µg/mL | MIC ([1]; 144 h): 0.025 µg/mL (≈ 0.0534 µM) | MIC (M. gallisepticum S6; [13]): 0.5 µg/mL (≈ 1.07 µM) | MIC (E. coli NCTC 10418 [2]; [14]): > 50 µg/mL | MIC (P. mirabilis 889; [15]): > 50 µg/mL | MIC (K. aerogenes A; [16]): > 50 µg/mL | MIC [3, 17]: > 50 µg/mL | MIC [4]: 1.2 µg/mL (≈ 2.56 µM) | MIC ([5]; Neisseria, 1502, 18 h): 5 µg/mL (≈ 10.7 µM) | MIC (Strep. faecalis I; [18]): 50 µg/mL (≈ 107 µM) | MIC (E. coli NCTC 10418 [6]; [19]): > 80 µg/mL | MIC (E. coli E1; Escherichia coli, E1, 18 h): > 80 µg/mL | MIC (S. typhimurium S18; [20]): > 80 µg/mL | MIC (Bord. bronchiseptica B09; [21]): 40 µg/mL (≈ 85.4 µM) | MIC ([7]; Staphylococcus aureus, 18 h): 0.625 µg/mL (≈ 1.33 µM) | MIC (Strep. uberis SPU1; [22]): 0.07 µg/mL (≈ 0.149 µM) | MIC (Strep. dysgalactiae SPD1; [23]): 0.312 µg/mL (≈ 0.666 µM)

C/C(=C\c1ncc(-c2cccc([N+](=O)[O-])c2)o1)C[C@@H]1OC[C@H](C[C@@H]2O[C@H]2[C@@H](C)[C@H](C)O)[C@@H](O)[C@H]1O [Example 6, 5-m-nitrophenyl-2-(1-normon-2-yl)oxazole A]
MIC (M. suipneumoniae NB12; Mesomycoplasma hyopneumoniae, NB12, 144 h): 0.05 µg/mL (≈ 0.102 µM) | MIC (M. suipneumoniae Str. 11; Mesomycoplasma hyopneumoniae, STR.11, 144 h): 0.05 µg/mL (≈ 0.102 µM) | MIC (M. suipneumoniae MS 16; Mesomycoplasma hyopneumoniae, MS16, 144 h): 0.025 µg/mL (≈ 0.0512 µM) | MIC (M. suipneumoniae TAM 6N; [12]): 0.1 µg/mL (≈ 0.205 µM) | MIC (M. bovis NCTC 10131; NCTC10131, 144 h): 0.025 µg/mL (≈ 0.0512 µM) | MIC ([1]; 144 h): 0.05 µg/mL (≈ 0.102 µM) | MIC (M. gallisepticum S6; [13]): 1 µg/mL (≈ 2.05 µM) | MIC (E. coli NCTC 10418 [2]; [14]): > 128 µg/mL | MIC (P. mirabilis 889; [15]): > 128 µg/mL | MIC (K. aerogenes A; [16]): > 128 µg/mL | MIC [3, 17]: > 128 µg/mL | MIC [4]: 2 µg/mL (≈ 4.09 µM) | MIC [5, 24]: 4 µg/mL (≈ 8.19 µM) | MIC (Strep. faecalis I; [18]): > 128 µg/mL | MIC [8, 25]: 4 µg/mL (≈ 8.19 µM) | MIC (E. coli NCTC 10418 [6]; [19]): > 80 µg/mL | MIC (E. coli E1; Escherichia coli, E1, 18 h): > 80 µg/mL | MIC (S. typhimurium S18; [20]): > 80 µg/mL | MIC (Bord. bronchiseptica B09; [21]): 20 µg/mL (≈ 40.9 µM) | MIC (Strep. uberis SPU1; [22]): 0.07 µg/mL (≈ 0.143 µM) | MIC (Strep. dysgalactiae SPD1; [23]): 0.625 µg/mL (≈ 1.28 µM)

CC(=Cc1cc(C)no1)CC1OCC(CC2OC2C(C)C(C)O)C(O)C1O (centres unmarked) [Example 30, 3-Methyl-5-(1-normon-2-yl) isoxazole A]
MIC (M. suipneumoniae NB12; M. suipneumoniae NB12, Friis broth, 0.9% agarose, 6 days, 37° C.): 5.0 µg/mL (≈ 13.1 µM) | MIC (M. suipneumoniae Str. 11; M. suipneumoniae Str. 11, 6 days, 37° C.): 2.5 µg/mL (≈ 6.55 µM) | MIC (M. suipneumoniae MS 16; M. suipneumoniae MS 16, 6 days, 37° C.): 2.5 µg/mL (≈ 6.55 µM) | MIC (M. suipneumoniae TAM 6N): 5.0 µg/mL (≈ 13.1 µM) | MIC (M. bovis NCTC 10131; M. bovis NCTC 10131, 6 days, 37° C.): 0.25 µg/mL (≈ 0.655 µM) | MIC ([1]; M. bovigenitalium ATCC 14173, 6 days, 37° C.): 0.25 µg/mL (≈ 0.655 µM) | MIC (M. gallisepticum S6): > 10 µg/mL | MIC (E. coli NCTC 10418 [2]): > 128 µg/mL | MIC (P. mirabilis 889): > 128 µg/mL | MIC (K. aerogenes A): > 128 µg/mL | MIC [3]: > 128 µg/mL | MIC ([5]; Neisseria catarrhalis 1502, 5% chocolated horse blood agar, 18 hours): 8.0 µg/mL (≈ 21 µM) | MIC (Strep. faecalis I): > 128 µg/mL | MIC [8]: 32 µg/mL (≈ 83.9 µM) | MIC (Strep. spp. 64/848-C): > 128 µg/mL | MIC (E. coli NCTC 10418 [6]; E. coli NCTC 10418, Diagnostic Sensitivity Test Agar, 18 hours, 37° C.): > 80 µg/mL | MIC (E. coli E1; E. coli E1, Diagnostic Sensitivity Test Agar, 18 hours, 37° C.): > 80 µg/mL | MIC (S. typhimurium S18; S. typhimurium S18, Diagnostic Sensitivity Test Agar, 18 hours): > 80 µg/mL | MIC (Bord. bronchiseptica B09; Bord. bronchiseptica B09, Diagnostic Sensitivity Test Agar, 18 hours): > 80 µg/mL | MIC ([7]; Staph. aureus 152 (pen. sens), Diagnostic Sensitivity Test Agar, 18 hours): 2.5 µg/mL (≈ 6.55 µM) | MIC (Strep. uberis SPU1; Strep. uberis SPU1, Diagnostic Sensitivity Test Agar, 18 hours): 10 µg/mL (≈ 26.2 µM) | MIC (Strep. dysgalactiae SPD1; Strep. dysgalactiae SPD1, Diagnostic Sensitivity Test Agar, 18 hours): 40 µg/mL (≈ 105 µM)

C/C(=C\c1cc(-c2ccccc2)no1)C[C@@H]1OC[C@H](C[C@@H]2O[C@H]2[C@@H](C)[C@H](C)O)[C@@H](O)[C@H]1O [Example 31, 5-(1-Normon-2-yl)-3-phenylisoxazole A]
MIC (M. suipneumoniae NB12; [9]): 10 µg/mL (≈ 22.5 µM) | MIC (M. suipneumoniae Str. 11; [10]): 5 µg/mL (≈ 11.3 µM) | MIC (M. suipneumoniae MS 16; [11]): 5 µg/mL (≈ 11.3 µM) | MIC (M. suipneumoniae TAM 6N; [12]): 10 µg/mL (≈ 22.5 µM) | MIC (M. bovis NCTC 10131; NCTC10131, 144 h): 1 µg/mL (≈ 2.25 µM) | MIC ([1]; 144 h, M. bovigenitalium ATCC 14173, 6 days, 37° C., read-out: MIC): 5 µg/mL (≈ 11.3 µM) | MIC (M. gallisepticum S6; [13]): > 10 µg/mL | MIC (E. coli NCTC 10418 [2]; [14]): > 128 µg/mL | MIC (P. mirabilis 889; [15]): > 128 µg/mL | MIC (K. aerogenes A; [16]): > 128 µg/mL | MIC [3, 17]: > 128 µg/mL | MIC [5, 24]: 8 µg/mL (≈ 18 µM) | MIC (Strep. faecalis I; [18]): > 128 µg/mL | MIC [8, 25]: 128 µg/mL (≈ 289 µM) | MIC (Strep. spp. 64/848-C; read-out: MIC): > 128 µg/mL | MIC (E. coli NCTC 10418 [6]; [19]): > 80 µg/mL | MIC (E. coli E1; Escherichia coli, E1, 18 h): > 80 µg/mL | MIC (S. typhimurium S18; [20]): > 80 µg/mL | MIC (Bord. bronchiseptica B09; [21]): 80 µg/mL (≈ 180 µM) | MIC ([7]; Staphylococcus aureus, 18 h): 10 µg/mL (≈ 22.5 µM) | MIC (Strep. uberis SPU1; [22]): 40 µg/mL (≈ 90.2 µM) | MIC (Strep. dysgalactiae SPD1; [23]): > 80 µg/mL
